Measurements taken from patent publication US6737383B1, “Herbicidal oxadiazolidines” (priority 1999, dated 2004).

How the values were obtained:
pigweed = experiment: Test B pre/postemergence pigweed; assay type: in vivo, Amaranthus retroflexus
How it was run: (§1)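 Herbicidal effect was estimated by eye on a ten-point control scale after plants spent twelve to sixteen days in a greenhouse following soil or foliar treatment. Foliar sprays targeted plants at one to four leaves; all doses were formulated in a non-phytotoxic solvent with surfactant.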

rape = experiment: Test B pre/postemergence rape; assay type: in vivo, Brassica napus
How it was run: as §1

sugar beet = experiment: Test B pre/postemergence sugar beet; assay type: in vivo, Beta vulgaris
How it was run: as §1

bermuda-grass = experiment: Test D bermudagrass; assay type: in vivo, Cynodon dactylon; conditions: Preemergence, 0 to 100 scale
How it was run: (§2)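 Seeds were sown in greenhouse pots, one species per pot or compartment. Compounds were in a non-phytotoxic solvent mixture with surfactant; preemergence applications went on the sandy loam surface within one day of planting. Injury was rated visually after 14 to 21 days, 0 (none) to 100 (complete control).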

itchgrass = experiment: Test D itchgrass; assay type: in vivo, Rottboellia exaltata; conditions: Preemergence, 0 to 100 scale
How it was run: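 Scoring used a 0–100 visual injury scale, with 0 meaning no effect and 100 complete control, assessed 14–21 days after application alongside untreated pots. Preemergence treatments went onto sandy loam surfaces of separately potted seeds within a day of sowing.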

pitted morningglory = experiment: Test D pitted morningglory; assay type: in vivo, Ipomoea lacunosa; conditions: Preemergence, 0 to 100 scale
How it was run: as §2

Spanishneedles = experiment: Test D Spanishneedles; assay type: in vivo, Bidens bipinnata; conditions: Preemergence, 0 to 100 scale
How it was run: as §2

winter wheat [1] = experiment: Test E winter wheat; assay type: in vivo, Triticum aestivum; conditions: Postemergence
How it was run: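 Postemergence: 60:40 sandy loam/greenhouse potting mix, 1- to 4-leaf stage. Formulation: solvent plus surfactant. Assessment: visual comparison with untreated controls at ~21–28 days.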

Green foxtail [2] = experiment: Test D green foxtail; assay type: in vivo
Excerpt: Seeds, tubers, or plant parts of Alexandergrass (Brachiaria plantaginea), bermuda-grass (Cynodon dactylon), common pursiane (Portulaca oleracea), common ragweed (Ambrosia elatior), common groundsel (Senecio vulgaris), dallisgrass (Paspalum dilatatum), goosegrass (Eleusine indica), guineagrass (Panicum maximum), itchgrass (Rottboellia exaltata), Johnson grass (Sorghum halepense), large crabgrass (Digitaria sanguinalis), pitted morningglory (Ipomoea lacunosa), purple nutsedge (Cyperus rotundus), sandbur (Cenchrus echinatus), sourgrass (Trichachne insularis), Spanishneedles (Bidens bipinnata), surinam grass (Brachiaria decumbens) and tall mallow (Malva sylvestris) were planted into greenhouse pots of flats containing greenhouse planting medium. Plant species were grown in separate pots or individual compartments. Preemergence applications were made within one day of planting the seed or plant part.
Test chemicals were formulated in a non-phytotoxic solvent mixture which included a surfactant and applied preemergence to the surface of the pot containing seeds in a sandy loam soil. Untreated control pots and treated pots were placed in the greenhouse for growth and visually evaluated for injury 14 to 21 days after herbicide application. Plant response ratings, summarized in Table C, are based on a 0 to 100 scale where 0 is no injury and 100 is complete control. A dash (−) response means no test result.

blackgrass = experiment: Test E blackgrass; assay type: in vivo, Alopecurus myosuroides; conditions: Preemergence
green foxtail [3] = experiment: Test E green foxtail; assay type: in vivo, Setaria viridis; conditions: Preemergence
Italian ryegrass = experiment: Test E Italian ryegrass; assay type: in vivo, Lolium multiflorum; conditions: Preemergence
winter wheat [4] = experiment: Test E winter wheat; assay type: in vivo, Triticum aestivum; conditions: Preemergence
wild oat = experiment: Test E wild oat; assay type: in vivo, Avena fatua; conditions: Preemergence, 0 to 100 scale where 0 is no effect and 100 is complete control
winter barley = experiment: Test E winter barley; assay type: in vivo, Hordeum vulgare; conditions: Preemergence
[5] = Postemergence, Rate 62 g/ha, scale 0 to 10, 0 is no effect, 10 is complete control
[6] = Postemergence, Rate 250 g/ha, scale 0 to 10, 0 no effect, 10 complete control
[7] = Preemergence, Rate 62 g/ha, scale 0 to 10, 0 is no effect, 10 is complete control
[8] = Preemergence, Rate 125 g/ha, scale 0 to 10 (0 no effect, 10 complete control)
[9] = Preemergence, Rate 250 g/ha, scale of 0 to 10 where 0 is no effect and 10 is complete control
[10] = Preemergence, Rate 500 g/ha, scale 0 (no effect) to 10 (complete control)
[11] = Rate 125 g/ha, Postemergence, scale 0 to 10, 0 no effect, 10 complete control
[12] = Rate 500 g/ha, Postemergence, 0 to 10 scale (0 no effect, 10 complete control)
[13] = Rate 16 g/ha, 0 no injury, 100 complete control
[14] = Rate 32 g/ha, 0 no injury, 100 complete control
[15] = Rate 64 g/ha, 0 no injury, 100 complete control
[16] = Rate 125 g/ha, 0 no injury, 100 complete control
[17] = Rate 64 g/ha, Preemergence; 0 to 100 scale, 0 no injury, 100 complete control
[18] = Rate 125 g/ha, Preemergence; 0 to 100 scale, 0 no injury, 100 complete control
[19] = Rate 500 g/ha, 0 to 100 scale where 0 is no effect and 100 is complete control
[20] = Rate 1000 g/ha, 0 to 100 scale where 0 is no effect and 100 is complete control

Cc1cccc(C)c1-n1c(=O)on(C(=O)N(c2ccccc2)C(C)C)c1=O [Compound 46]
Redroot pigweed plant response rating (pigweed; [5]): 0 | Redroot pigweed plant response rating (pigweed; [6]): 0 | Plant response rating, Redroot pigweed (pigweed; [7]): 0 | Plant response rating, Redroot pigweed (pigweed; [8]): 0 | Plant response rating, Redroot pigweed (pigweed; [9]): 6 | Redroot pigweed plant response rating (pigweed; [10]): 9 | Redroot pigweed plant response rating (pigweed; [11]): 0 | Redroot pigweed plant response rating (pigweed; [12]): 0 | Rape plant response rating (rape; [5]): 0 | Rape plant response rating (rape; [6]): 0 | Plant response rating, Rape (rape; [7]): 0 | Plant response rating, Rape (rape; [8]): 0 | Plant response rating, Rape (rape; [9]): 0 | Rape plant response rating (rape; [10]): 0 | Rape plant response rating (rape; [11]): 0 | Rape plant response rating (rape; [12]): 0 | Sugarbeets plant response rating (sugar beet; [5]): 0 | Sugarbeets plant response rating (sugar beet; [6]): 0 | Plant response rating, Sugarbeets (sugar beet; [7]): 0 | Plant response rating, Sugarbeets (sugar beet; [8]): 3 | Plant response rating, Sugarbeets (sugar beet; [9]): 3 | Sugarbeets plant response rating (sugar beet; [10]): 6 | Sugarbeets plant response rating (sugar beet; [11]): 0 | Plant response rating, Bermudagrass (bermuda-grass; [13]): 65 | Plant response rating, Bermudagrass (bermuda-grass; [14]): 85 | Plant response rating, Bermudagrass (bermuda-grass; [15]): 98 | Plant response rating, Bermudagrass (bermuda-grass; [16]): 100 | Plant response rating, Bermudagrass (bermuda-grass; Rate 250 g/ha): 100 | Plant response rating, Bermudagrass (bermuda-grass; Rate 500 g/ha): 100 | Plant response rating, Itchgrass (itchgrass; [13]): 0 | Plant response rating, Itchgrass (itchgrass; [14]): 0 | Plant response rating, Itchgrass (itchgrass; [15]): 0 | Plant response rating, Itchgrass (itchgrass; [16]): 0 | Plant response rating, Itchgrass (itchgrass; Rate 250 g/ha): 0 | Plant response rating, Itchgrass (itchgrass; Rate 500 g/ha): 10 | Plant response rating, P. morninglory (pitted morningglory; [13]): 0 | Plant response rating, P. morninglory (pitted morningglory; [14]): 0 | Plant response rating, P. morninglory (pitted morningglory; [15]): 0 | Plant response rating, P. morninglory (pitted morningglory; [16]): 0 | Plant response rating, P. morninglory (pitted morningglory; Rate 250 g/ha): 0 | Plant response rating, P. morninglory (pitted morningglory; Rate 500 g/ha): 0 | Plant response rating, Spanishneedles (Spanishneedles; [13]): 0 | Plant response rating, Spanishneedles (Spanishneedles; [14]): 0 | Spanishneedles plant response rating (Spanishneedles; [15]): 0 | Spanishneedles plant response rating (Spanishneedles; [16]): 10 | Plant response rating, Spanishneedles (Spanishneedles; Rate 500 g/ha): 20 | Plant response rating, Wheat (winter) (winter wheat [1]; Rate 250 g/ha, 0 to 100 scale (0 no effect, 100 complete control)): 60 | Plant response rating, Wheat (winter) (winter wheat [1]; Rate 1000 g/ha, 0 to 100 scale, 0 is no effect and 100 is complete control): 70 | Plant response rating, Wheat (winter) (winter wheat [1]; Rate 500 g/ha, 0 to 100 scale, 0 no effect, 100 complete control): 70 | Plant response rating, Green foxtail (Green foxtail [2]; Preemergence; Rate 16 g/ha; 0 to 100 scale, 0 no injury, 100 complete control): 0 | Plant response rating, Green foxtail (Green foxtail [2]; Preemergence; Rate 32 g/ha; 0 to 100 scale, 0 no injury, 100 complete control): 0 | Plant response rating, Green foxtail (Green foxtail [2]; Rate 16 g/ha; Preemergence; 0 to 100 scale, 0 no injury, 100 complete control): 0 | Plant response rating, Green foxtail (Green foxtail [2]; Rate 32 g/ha; Preemergence; 0 to 100 scale, 0 no injury, 100 complete control): 75 | Green foxtail plant response rating (Green foxtail [2]; [17]): 30 | Plant response rating, Green foxtail (Green foxtail [2]; [17]): 30 | Green foxtail plant response rating (Green foxtail [2]; [18]): 40 | Plant response rating, Green foxtail (Green foxtail [2]; [18]): 40 | Plant response rating, Green foxtail (Green foxtail [2]; Rate 250 g/ha; Preemergence; 0 to 100 scale): 100 | Plant response rating, Green foxtail (Green foxtail [2]; Rate 500 g/ha, Preemergence; 0 to 100 scale): 100 | Plant response rating, Blackgrass (blackgrass; Rate 250 g/ha, 0 to 100 scale): 40 | Plant response rating, Blackgrass (blackgrass; [19]): 55 | Plant response rating, Blackgrass (blackgrass; [20]): 70 | Plant response rating, Green foxtail (green foxtail [3]; Rate 250 g/ha, 0 to 100 scale): 60 | Plant response rating, Green foxtail (green foxtail [3]; [19]): 85 | Plant response rating, Green foxtail (green foxtail [3]; [20]): 80 | Plant response rating, I. Ryegrass (Italian ryegrass; Rate 250 g/ha, 0 to 100 scale): 50 | Plant response rating, I. Ryegrass (Italian ryegrass; [19]): 65 | Plant response rating, I. Ryegrass (Italian ryegrass; [20]): 70 | Plant response rating, Wheat (winter) (winter wheat [4]; Rate 250 g/ha, 0 to 100 scale): 40 | Plant response rating, Wheat (winter) (winter wheat [4]; [19]): 70 | Plant response rating, Wheat (winter) (winter wheat [4]; [20]): 50 | Plant response rating, Wild oat (wild oat; Rate 500 g/ha): 60 | Plant response rating, Wild oat (wild oat; Rate 1000 g/ha): 70 | Plant response rating, Barley (winter) (winter barley; Rate 250 g/ha, 0 to 100 scale): 30 | Plant response rating, Barley (winter) (winter barley; [19]): 40 | Plant response rating, Barley (winter) (winter barley; [20]): 50
